Like-named read-outs stand apart in the source and are kept apart here.
Tests used:
[1] = tested on: CYP3A4 enzyme; test: Liver injury simulation in 3D co-cultures with HepaRG: CYP3A4 enzyme activity and albumin production; conditions: hydrogels and NP-hydrogels, K-HSC or LX-2 with HepaRG 1:1
[2] = tested on: TGF-β1; test: K-HSC/HepaRG 1:1 in 4% hydrogel with TGF-β1 and inhibitor A, 18-day culture, liver fibrosis marker expression; type: cell-based, human; conditions: K-HSC/HepaRG 1:1, 4% hydrogel, 18 days
Protocol: Meanwhile, the K-HSC was encapsulated with the hepatic cell line HepaRG at a ratio of 1:1 in a 4% hydrogel and then 3D cultured, and the groups were divided into experimental groups to which TGF-β1, which is a fibrosis-inducing material, and inhibitor A thereof were added individually or simultaneously, and a control group to which TGF-β1 and inhibitor A were not added. The groups were cultured for 18 days, and then the cell network formation and expression differences of fibrosis markers in the liver analogs were confirmed.

[3] = tested on: primary human hepatic cells; test: K-HSC and primary human hepatic cells 1:1 in hydrogel or nanoparticle-hydrogel, TGF-β1 cycles, albumin; type: cell-based; conditions: 10 ng/mL TGF-β1, 3 cycles, 24-day culture, K-HSC with primary human hepatic cells
Protocol: The K-HSC prepared in Example 1 was encapsulated with primary human hepatic cells (PHHs, Corning, USA) at a ratio of 1:1 in 4.5% polyethylene glycol/hyaluronic acid/RGD hydrogel using photopolymerization as described in Example 4. The cells frozen with nitrogen were thawed using recovery media (ThermoFisher, USA) and centrifuged, and then the number of cells were measured, and the cells were encapsulated with the K-HSC in a hydrogel, and then cultured for one day in a primary human hepatocyte plating medium (ThermoFisher, USA) containing 10% bovine serum. The medium was converted to a dedicated serum-free medium for primary human hepatic cells (Corning, USA), after 5 days, TGF-β1 inducing fibrosis, was added for 24 hours at a concentration of 10 ng/mL, and then converted back to a serum-free medium to which the TGF-β1 was not added in the following day, 3 cycles were performed, and the appearance change of the hydrogel was observed after the 24-day culture, and albumin production ability and expression levels of fibrosis markers were measured by RT-PCR.

[4] = tested on: CYP3A4 enzyme

| Molecule | CYP3A4 enzyme activity and function [1] | reactivity to TGF-β1 in expression of liver fibrosis markers [2] | albumin degrading ability in the presence of TGF-β1 compared to control groups [3] | CYP3A4 enzyme activity and function [4] |
| --- | --- | --- | --- | --- |
| CN(Cc1cnc2nc(N)nc(N)c2n1)c1ccc(C(=O)N[C@@H](CCC(=O)O)C(=O)O)cc1 [MTX, methotrexate] | CYP3A4 enzyme activity and functional decrease were simulated | – | – | – |
| transforming growth factor beta 1 [TGF-β1] | – | confirmed in all markers except smooth muscle actin alpha (α-SMA) and lysyl oxidase (LOX) | deterioration | CYP3A4 enzyme activity and functional decrease were simulated |

From patent publication US20240400997A1, “TRANSFORMED HUMAN HEPATIC STELLATE CELL LINE AND USE THEREOF” (KOREA RESEARCH INSTITUTE OF BIOSCIENCE AND BIOTECHNOLOGY, priority 2020, published 2024)
